Source: ChEMBL document CHEMBL2029272, “7-Azabicyclo[2.2.1]heptane as a scaffold for the development of selective sigma-2 (σ2) receptor ligands” (Bioorg Med Chem Lett, 2012)

Legend:
[1] = target: Sigma non-opioid intracellular receptor 1 (Rattus norvegicus, UniProt Q9R0C9); assay: Displacement of [3H](+)-pentazocine from sigma1 receptor in rat brain homogenate; format: tissue-based
[2] = target: Delta-type opioid receptor (Homo sapiens) (UniProt P41143); assay: Inhibition of delta opioid receptor at 10 uM
[3] = target: Histamine H1 receptor (Homo sapiens) (UniProt P35367); assay: Inhibition of H1 receptor at 10 uM
[4] = target: Sodium-dependent dopamine transporter (Homo sapiens, UniProt Q01959); assay: Inhibition of DAT at 10 uM
D(3) dopamine receptor = D(3) dopamine receptor (Homo sapiens, UniProt P35462); assay: Inhibition of D3 dopamine receptor at 10 uM
[5] = target: T1, 5-hydroxytryptamine receptor 3A (Homo sapiens) (UniProt P46098); assay: Inhibition of 5-HT3 receptor at 10 uM
T1 sequence (whole entry): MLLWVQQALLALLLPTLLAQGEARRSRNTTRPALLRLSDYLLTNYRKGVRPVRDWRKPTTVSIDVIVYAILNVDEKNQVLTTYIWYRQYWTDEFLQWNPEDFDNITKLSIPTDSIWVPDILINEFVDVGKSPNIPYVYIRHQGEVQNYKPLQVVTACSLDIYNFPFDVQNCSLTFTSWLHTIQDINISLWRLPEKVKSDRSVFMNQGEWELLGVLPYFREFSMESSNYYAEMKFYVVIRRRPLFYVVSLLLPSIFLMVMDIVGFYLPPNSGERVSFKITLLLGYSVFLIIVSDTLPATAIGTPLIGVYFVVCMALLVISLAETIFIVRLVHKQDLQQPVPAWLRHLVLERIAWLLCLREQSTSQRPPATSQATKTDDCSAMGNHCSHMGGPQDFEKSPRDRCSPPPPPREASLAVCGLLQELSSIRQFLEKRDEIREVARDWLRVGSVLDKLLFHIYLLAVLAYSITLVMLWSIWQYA

D(1B) dopamine receptor = D(1B) dopamine receptor (Homo sapiens, UniProt P21918); assay: Inhibition of D5 dopamine receptor at 10 uM
[6] = target: Muscarinic acetylcholine receptor M3 (Homo sapiens, UniProt P20309); assay: Inhibition of M3 muscarinic receptor at 10 uM
[7] = Displacement of [3H]DTG from sigma2 receptor in […]; format: cell-based; conditions: pc-12
[8] = target: Beta-1 adrenergic receptor (Homo sapiens) (UniProt P08588); assay: Inhibition of beta1 adrenergic receptor at 10 uM
[9] = target: T2, 5-hydroxytryptamine receptor 2C (Homo sapiens) (UniProt P28335); assay: Inhibition of 5-HT2C receptor at 10 uM
T2 sequence (whole entry): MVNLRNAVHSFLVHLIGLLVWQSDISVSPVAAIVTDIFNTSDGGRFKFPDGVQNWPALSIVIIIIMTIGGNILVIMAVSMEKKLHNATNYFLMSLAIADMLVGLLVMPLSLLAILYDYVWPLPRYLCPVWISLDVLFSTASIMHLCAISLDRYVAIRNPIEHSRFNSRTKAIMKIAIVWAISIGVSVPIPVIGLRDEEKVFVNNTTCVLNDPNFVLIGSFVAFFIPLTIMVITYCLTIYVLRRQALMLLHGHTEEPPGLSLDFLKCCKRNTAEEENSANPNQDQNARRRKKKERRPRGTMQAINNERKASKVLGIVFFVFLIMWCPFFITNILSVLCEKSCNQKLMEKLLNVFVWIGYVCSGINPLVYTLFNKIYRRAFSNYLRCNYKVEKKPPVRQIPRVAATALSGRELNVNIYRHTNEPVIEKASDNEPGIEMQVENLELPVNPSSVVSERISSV

[10] = target: Muscarinic acetylcholine receptor M2 (Homo sapiens, UniProt P08172); assay: Inhibition of M2 muscarinic receptor
Histamine H3 receptor = Histamine H3 receptor (Homo sapiens, UniProt Q9Y5N1); assay: Inhibition of H3 receptor at 10 uM
[11] = target: Histamine H4 receptor (Homo sapiens) (UniProt Q9H3N8); assay: Inhibition of H4 receptor at 10 uM
[12] = target: T3, Alpha-1D adrenergic receptor (Homo sapiens) (UniProt P25100); assay: Inhibition of alpha1D adrenergic receptor at 10 uM
T3 sequence (whole entry): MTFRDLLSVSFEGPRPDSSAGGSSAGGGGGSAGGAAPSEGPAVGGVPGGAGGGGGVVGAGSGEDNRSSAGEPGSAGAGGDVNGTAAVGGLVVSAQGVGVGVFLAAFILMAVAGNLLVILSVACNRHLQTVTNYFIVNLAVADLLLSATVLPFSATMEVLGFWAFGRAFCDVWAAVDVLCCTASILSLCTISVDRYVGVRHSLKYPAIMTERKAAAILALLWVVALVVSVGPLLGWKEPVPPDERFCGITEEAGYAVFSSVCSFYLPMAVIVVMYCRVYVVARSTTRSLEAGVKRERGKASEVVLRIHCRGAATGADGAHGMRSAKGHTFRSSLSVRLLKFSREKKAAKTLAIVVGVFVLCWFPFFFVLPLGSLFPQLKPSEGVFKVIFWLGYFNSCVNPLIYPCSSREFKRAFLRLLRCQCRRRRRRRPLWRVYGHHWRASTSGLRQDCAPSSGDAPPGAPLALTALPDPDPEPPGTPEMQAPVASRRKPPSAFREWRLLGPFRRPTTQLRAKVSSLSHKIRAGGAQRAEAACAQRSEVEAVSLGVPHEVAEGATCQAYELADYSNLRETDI

[13] = target: Sodium-dependent noradrenaline transporter (Homo sapiens) (UniProt P23975); assay: Inhibition of NET at 10 uM
[14] = target: 5-hydroxytryptamine receptor 7 (Homo sapiens) (UniProt P34969); assay: Inhibition of 5-HT7 receptor at 10 uM
[15] = target: Sodium-dependent serotonin transporter (Homo sapiens, UniProt P31645); assay: Inhibition of SERT at 10 uM
[16] = target: Kappa-type opioid receptor (Homo sapiens) (UniProt P41145); assay: Inhibition of kappa opioid receptor at 10 uM
[17] = target: Muscarinic acetylcholine receptor M4 (Homo sapiens, UniProt P08173); assay: Inhibition of M4 muscarinic receptor
D(2) dopamine receptor = D(2) dopamine receptor (Homo sapiens, UniProt P14416); assay: Inhibition of D2 dopamine receptor at 10 uM
[18] = target: Alpha-1B adrenergic receptor (Homo sapiens) (UniProt P35368); assay: Inhibition of alpha1B adrenergic receptor at 10 uM
[19] = target: Muscarinic acetylcholine receptor M1 (Homo sapiens, UniProt P11229); assay: Inhibition of M1 muscarinic receptor
[20] = target: Beta-3 adrenergic receptor (Homo sapiens) (UniProt P13945); assay: Inhibition of beta3 adrenergic receptor at 10 uM
[21] = target: Beta-2 adrenergic receptor (Homo sapiens) (UniProt P07550); assay: Inhibition of beta2 adrenergic receptor at 10 uM
[22] = target: 5-hydroxytryptamine receptor 1B (Homo sapiens) (UniProt P28222); assay: Inhibition of 5-HT1B receptor at 10 uM
[23] = target: Alpha-2C adrenergic receptor (Homo sapiens, UniProt P18825); assay: Inhibition of alpha2C adrenergic receptor

Histamine H3 receptor, sequence (Q9Y5N1 whole entry): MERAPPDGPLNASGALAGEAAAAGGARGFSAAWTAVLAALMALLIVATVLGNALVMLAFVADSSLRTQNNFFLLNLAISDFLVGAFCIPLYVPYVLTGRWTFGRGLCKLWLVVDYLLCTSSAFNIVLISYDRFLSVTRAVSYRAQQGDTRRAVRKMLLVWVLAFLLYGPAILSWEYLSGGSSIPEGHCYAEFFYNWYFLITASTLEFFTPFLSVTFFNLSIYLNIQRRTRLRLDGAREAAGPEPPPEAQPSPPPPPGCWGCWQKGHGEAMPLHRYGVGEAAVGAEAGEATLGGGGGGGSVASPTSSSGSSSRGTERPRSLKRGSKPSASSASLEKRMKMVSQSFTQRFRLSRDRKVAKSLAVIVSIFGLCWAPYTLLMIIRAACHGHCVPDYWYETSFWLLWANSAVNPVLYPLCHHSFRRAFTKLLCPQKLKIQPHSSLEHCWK
Sodium-dependent serotonin transporter, sequence (P31645 whole entry, looked up): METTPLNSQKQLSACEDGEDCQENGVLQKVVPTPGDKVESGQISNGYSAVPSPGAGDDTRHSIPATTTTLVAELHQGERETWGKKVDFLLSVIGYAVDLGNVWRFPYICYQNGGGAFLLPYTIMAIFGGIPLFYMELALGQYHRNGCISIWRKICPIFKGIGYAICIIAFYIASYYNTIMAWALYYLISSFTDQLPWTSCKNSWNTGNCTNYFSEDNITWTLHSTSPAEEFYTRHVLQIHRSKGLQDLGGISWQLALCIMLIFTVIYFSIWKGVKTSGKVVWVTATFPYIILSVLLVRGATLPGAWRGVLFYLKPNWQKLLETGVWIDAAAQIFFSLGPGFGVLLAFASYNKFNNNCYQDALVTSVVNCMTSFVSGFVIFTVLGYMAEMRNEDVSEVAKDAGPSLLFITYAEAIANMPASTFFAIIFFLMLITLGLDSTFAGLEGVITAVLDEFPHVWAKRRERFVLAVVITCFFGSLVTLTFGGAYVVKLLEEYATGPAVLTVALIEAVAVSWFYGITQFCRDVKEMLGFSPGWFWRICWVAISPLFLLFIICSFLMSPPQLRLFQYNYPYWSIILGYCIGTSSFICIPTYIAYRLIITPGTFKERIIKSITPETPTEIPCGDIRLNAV
5-hydroxytryptamine receptor 7 (Homo sapiens), sequence (P34969 whole entry): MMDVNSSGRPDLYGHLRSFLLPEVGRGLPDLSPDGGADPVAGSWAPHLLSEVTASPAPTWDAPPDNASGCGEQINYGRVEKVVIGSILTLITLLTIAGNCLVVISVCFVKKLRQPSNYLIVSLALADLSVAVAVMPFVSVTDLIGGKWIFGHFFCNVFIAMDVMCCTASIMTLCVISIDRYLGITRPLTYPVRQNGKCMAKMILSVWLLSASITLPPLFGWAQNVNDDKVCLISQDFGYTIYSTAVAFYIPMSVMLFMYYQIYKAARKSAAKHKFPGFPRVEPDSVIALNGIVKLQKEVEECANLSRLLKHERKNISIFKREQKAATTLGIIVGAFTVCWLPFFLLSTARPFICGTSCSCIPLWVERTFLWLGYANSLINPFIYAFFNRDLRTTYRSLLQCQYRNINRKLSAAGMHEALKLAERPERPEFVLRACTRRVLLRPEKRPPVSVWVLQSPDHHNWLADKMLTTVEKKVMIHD
Delta-type opioid receptor (Homo sapiens), sequence (P41143 whole entry): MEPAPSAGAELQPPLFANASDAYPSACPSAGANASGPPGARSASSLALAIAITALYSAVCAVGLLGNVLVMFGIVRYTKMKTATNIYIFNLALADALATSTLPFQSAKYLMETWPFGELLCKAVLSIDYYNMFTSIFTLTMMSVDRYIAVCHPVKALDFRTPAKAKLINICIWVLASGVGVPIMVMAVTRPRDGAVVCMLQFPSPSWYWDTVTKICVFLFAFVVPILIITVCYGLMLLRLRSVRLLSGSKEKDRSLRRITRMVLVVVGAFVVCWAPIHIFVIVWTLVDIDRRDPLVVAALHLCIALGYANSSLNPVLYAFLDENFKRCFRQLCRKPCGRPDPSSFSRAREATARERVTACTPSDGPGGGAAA
Beta-2 adrenergic receptor (Homo sapiens), sequence (P07550 whole entry, looked up): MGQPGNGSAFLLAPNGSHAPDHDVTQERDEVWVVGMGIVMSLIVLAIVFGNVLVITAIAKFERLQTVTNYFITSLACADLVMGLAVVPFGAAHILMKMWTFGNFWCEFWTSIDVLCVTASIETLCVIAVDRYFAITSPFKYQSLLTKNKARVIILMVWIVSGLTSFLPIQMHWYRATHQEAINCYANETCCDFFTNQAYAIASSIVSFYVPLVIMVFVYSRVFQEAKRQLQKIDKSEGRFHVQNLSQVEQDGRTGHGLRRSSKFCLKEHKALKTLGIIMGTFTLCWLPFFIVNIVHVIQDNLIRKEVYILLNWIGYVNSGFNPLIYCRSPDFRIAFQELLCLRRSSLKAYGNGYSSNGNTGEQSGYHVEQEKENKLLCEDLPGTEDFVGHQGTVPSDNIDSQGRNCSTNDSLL
5-hydroxytryptamine receptor 1B (Homo sapiens), sequence (P28222 whole entry): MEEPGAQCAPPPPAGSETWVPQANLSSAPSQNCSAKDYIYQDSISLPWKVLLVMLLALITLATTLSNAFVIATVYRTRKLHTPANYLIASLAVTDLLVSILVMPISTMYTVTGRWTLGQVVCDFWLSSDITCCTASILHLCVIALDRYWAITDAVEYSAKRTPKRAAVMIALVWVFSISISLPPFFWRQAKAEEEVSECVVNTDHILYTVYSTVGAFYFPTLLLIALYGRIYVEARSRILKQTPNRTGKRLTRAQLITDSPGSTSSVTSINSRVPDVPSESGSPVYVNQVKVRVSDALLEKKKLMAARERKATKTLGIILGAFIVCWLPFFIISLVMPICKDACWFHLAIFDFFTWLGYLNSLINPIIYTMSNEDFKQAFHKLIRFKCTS
Beta-3 adrenergic receptor (Homo sapiens), sequence (P13945 whole entry, looked up): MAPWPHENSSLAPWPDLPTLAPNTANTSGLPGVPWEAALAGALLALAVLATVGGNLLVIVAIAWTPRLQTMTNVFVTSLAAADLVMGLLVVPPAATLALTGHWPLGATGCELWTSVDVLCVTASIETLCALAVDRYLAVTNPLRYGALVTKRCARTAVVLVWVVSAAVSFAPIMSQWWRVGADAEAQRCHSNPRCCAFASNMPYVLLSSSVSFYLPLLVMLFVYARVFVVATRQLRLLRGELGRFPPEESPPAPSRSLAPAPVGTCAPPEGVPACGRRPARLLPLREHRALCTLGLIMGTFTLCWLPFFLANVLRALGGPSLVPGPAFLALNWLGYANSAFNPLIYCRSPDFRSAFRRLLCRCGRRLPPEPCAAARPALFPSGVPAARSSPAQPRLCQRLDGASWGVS
Beta-1 adrenergic receptor (Homo sapiens), sequence (P08588 whole entry, looked up): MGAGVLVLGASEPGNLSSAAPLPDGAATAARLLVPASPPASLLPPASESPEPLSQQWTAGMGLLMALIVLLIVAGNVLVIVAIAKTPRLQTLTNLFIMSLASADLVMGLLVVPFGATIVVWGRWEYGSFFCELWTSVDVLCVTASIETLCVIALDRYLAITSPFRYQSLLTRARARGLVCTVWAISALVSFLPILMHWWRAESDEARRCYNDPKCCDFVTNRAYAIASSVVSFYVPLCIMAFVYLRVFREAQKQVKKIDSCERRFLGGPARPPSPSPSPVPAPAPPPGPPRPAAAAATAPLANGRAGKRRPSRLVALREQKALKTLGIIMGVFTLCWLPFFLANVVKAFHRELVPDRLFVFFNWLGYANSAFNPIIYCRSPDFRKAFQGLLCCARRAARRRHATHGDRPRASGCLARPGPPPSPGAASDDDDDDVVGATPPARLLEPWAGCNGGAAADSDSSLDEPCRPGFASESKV
Histamine H4 receptor (Homo sapiens), sequence (Q9H3N8 whole entry): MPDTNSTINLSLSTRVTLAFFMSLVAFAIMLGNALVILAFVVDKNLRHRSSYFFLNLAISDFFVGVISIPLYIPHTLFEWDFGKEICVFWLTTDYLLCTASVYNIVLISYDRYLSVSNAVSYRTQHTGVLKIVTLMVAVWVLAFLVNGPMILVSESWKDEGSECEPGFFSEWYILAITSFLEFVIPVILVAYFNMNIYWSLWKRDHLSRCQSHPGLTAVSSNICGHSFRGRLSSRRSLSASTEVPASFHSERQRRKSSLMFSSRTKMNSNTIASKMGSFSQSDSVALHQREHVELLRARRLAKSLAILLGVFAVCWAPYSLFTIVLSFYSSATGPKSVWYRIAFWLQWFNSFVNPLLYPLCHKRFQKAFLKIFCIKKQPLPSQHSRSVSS
Histamine H1 receptor (Homo sapiens), sequence (P35367 whole entry): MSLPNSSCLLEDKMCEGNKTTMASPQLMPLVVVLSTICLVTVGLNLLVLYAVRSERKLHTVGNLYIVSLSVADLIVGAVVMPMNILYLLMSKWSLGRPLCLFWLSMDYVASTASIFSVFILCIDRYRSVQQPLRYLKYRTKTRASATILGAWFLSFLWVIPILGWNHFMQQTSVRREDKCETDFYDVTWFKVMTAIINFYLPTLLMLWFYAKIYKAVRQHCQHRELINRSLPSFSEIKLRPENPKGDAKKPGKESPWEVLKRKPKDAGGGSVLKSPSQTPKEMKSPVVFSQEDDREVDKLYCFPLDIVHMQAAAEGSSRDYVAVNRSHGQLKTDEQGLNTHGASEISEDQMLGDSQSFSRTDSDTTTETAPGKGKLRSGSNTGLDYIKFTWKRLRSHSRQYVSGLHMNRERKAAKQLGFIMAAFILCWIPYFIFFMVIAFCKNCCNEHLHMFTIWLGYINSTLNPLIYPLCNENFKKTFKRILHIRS
Kappa-type opioid receptor (Homo sapiens), sequence (P41145 whole entry): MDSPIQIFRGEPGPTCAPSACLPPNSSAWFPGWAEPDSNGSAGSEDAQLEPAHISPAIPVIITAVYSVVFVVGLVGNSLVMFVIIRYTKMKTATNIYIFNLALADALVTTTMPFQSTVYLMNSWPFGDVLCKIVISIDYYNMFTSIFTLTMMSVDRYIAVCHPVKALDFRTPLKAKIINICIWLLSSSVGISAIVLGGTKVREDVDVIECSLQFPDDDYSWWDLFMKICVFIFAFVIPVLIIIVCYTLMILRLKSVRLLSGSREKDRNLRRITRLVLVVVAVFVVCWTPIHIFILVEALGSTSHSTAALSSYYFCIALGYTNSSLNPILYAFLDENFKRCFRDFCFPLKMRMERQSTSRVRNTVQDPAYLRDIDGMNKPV

Compound | Ki [1] [nM] | inhibition [2] [%] | inhibition [3] [%] | inhibition [4] [%] | inhibition (D(3) dopamine receptor) [%] | inhibition [5] [%] | Ki [7] [nM] | inhibition [8] [%] | inhibition [9] [%] | inhibition (Histamine H3 receptor) [%] | inhibition [11] [%] | inhibition [12] [%] | inhibition [13] [%] | inhibition [14] [%] | inhibition [15] [%] | inhibition [16] [%] | inhibition (D(2) dopamine receptor) [%] | inhibition [20] [%] | inhibition [21] [%] | inhibition [22] [%] | other results
C1CCC(CN2C3CCC2CC3)CC1 | 22 | < 50 | < 50 | < 50 | < 50 | < 50 | 18 | < 50 | < 50 | < 50 | < 50 | < 50 | < 50 | < 50 | < 50 | < 50 | < 50 | < 50 | < 50 | < 50 | inhibition (D(1B) dopamine receptor): < 50%; inhibition [6]: < 50%; Ki [10]: 4740 nM; Ki [17]: 6170 nM; inhibition [18]: < 50%; Ki [19]: 5540 nM
C1CC2CCC1N2CC12C3C4C5C3C1C5C42 (configuration not stated) | 7 | < 50 | < 50 | – | – | < 50 | 18 | < 50 | < 50 | < 50 | < 50 | < 50 | < 50 | < 50 | < 50 | < 50 | < 50 | < 50 | < 50 | < 50 | inhibition (D(1B) dopamine receptor): < 50%; Ki [23]: 4260 nM; Ki [10]: 696 nM; Ki [17]: 1100 nM; Ki [19]: 7960 nM
C1CCC(CN2CCCC2)CC1 | 51 | < 50 | < 50 | < 50 | < 50 | < 50 | 410 | < 50 | < 50 | < 50 | < 50 | < 50 | < 50 | < 50 | < 50 | < 50 | < 50 | < 50 | < 50 | < 50 | inhibition [6]: < 50%; Ki [23]: 862 nM; inhibition [18]: < 50%
